IC50, Ratio and hepatocyte CLint data for 17 compounds are collected here from patent publication US11254686B1 (Corvus Pharmaceuticals, Inc., priority 2017, dated 2022).

Data set [1] deals with T1, adenosine A1 receptor (Homo sapiens (Human), UniProt P30542). Description: A1 cAMP IC50 assay (Table 1). Type of data set: biochemical.
The target in a further data set is adenosine A2B receptor (Homo sapiens (Human), UniProt P29275). Description: Adenosine receptor activity assay (Table 1), A2B activity. Type of data set: biochemical. Particulars: for IC50: read-out: Ave A2B cAMP IC50.
Sequence of adenosine A2B receptor (P29275 whole entry): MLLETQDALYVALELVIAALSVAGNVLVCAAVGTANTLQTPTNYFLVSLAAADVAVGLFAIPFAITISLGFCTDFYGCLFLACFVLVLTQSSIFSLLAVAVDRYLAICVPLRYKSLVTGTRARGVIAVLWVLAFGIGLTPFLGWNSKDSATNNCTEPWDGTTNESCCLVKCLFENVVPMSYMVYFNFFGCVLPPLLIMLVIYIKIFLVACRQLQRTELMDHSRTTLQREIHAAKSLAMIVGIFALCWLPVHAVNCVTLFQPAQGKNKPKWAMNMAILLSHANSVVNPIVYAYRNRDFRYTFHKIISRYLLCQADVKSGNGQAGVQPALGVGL
Data set [2] in a line: Hepatocyte (Hep) intrinsic clearance, human. Type of data set: in vitro ADME. The settings on record: hepatocytes.
The next data set deals with adenosine A2A receptor (Homo sapiens (Human), UniProt P29274). Nature of the data set: Adenosine receptor activity assay (Table 1), A2A activity. In kind it is biochemical. Particulars: read-out: Ave A2A cAMP IC50.
Sequence of adenosine A2A receptor (P29274 whole entry): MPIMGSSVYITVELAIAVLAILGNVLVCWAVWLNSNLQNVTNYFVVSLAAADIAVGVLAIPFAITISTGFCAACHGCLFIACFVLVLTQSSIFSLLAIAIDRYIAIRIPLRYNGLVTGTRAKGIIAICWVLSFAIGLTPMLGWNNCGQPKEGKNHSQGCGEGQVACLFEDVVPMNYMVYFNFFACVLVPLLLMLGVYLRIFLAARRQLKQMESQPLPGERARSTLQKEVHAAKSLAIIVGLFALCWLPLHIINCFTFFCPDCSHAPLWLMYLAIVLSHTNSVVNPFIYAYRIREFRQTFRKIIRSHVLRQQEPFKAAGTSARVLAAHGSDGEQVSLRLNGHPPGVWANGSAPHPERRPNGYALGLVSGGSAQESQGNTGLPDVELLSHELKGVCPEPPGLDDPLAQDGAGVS
Data set [3] can be described thus: Hepatocyte (Hep) intrinsic clearance, rat. Type of data set: in vitro ADME. The settings on record: hepatocytes.
Data set [4] has as its target T2, adenosine A3 receptor (Homo sapiens (Human), UniProt P0DMS8). Description: A3 cAMP IC50 assay (Table 1). Type of data set: biochemical.
Data set [5] deals with T1, adenosine A1 receptor. Description: Adenosine receptor activity assay (Table 1), A1 cAMP. Type of data set: biochemical.
Data set [6] addresses T2, adenosine A3 receptor. Description: Adenosine receptor activity assay (Table 1), A3 cAMP. Type of data set: biochemical.
Where [7] appears, read: A2A activity to A2B activity (A2A/A2B).

Like-named read-outs stand apart in the source and are kept apart here.

T1 sequence (P30542 whole entry): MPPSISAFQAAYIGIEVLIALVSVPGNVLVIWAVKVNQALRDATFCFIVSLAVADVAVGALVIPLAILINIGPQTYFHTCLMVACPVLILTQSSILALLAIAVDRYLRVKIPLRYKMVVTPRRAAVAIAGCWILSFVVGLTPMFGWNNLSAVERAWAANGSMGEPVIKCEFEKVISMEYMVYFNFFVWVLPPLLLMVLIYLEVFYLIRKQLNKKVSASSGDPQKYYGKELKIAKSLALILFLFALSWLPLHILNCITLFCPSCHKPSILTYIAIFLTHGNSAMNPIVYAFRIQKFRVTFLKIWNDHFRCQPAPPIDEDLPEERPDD
T2 sequence (P0DMS8 whole entry): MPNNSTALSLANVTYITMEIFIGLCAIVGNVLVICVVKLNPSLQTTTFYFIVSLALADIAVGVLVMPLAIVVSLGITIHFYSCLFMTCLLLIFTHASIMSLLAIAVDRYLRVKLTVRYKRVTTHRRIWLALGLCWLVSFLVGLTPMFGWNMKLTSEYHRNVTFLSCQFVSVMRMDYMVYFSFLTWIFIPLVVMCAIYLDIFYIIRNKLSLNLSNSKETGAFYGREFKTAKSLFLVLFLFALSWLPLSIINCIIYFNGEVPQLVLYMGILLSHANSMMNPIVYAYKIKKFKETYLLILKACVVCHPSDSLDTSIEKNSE

Regarding `C[C@H](Nc1nc(C(=O)N2CC(O)C2)c2sccc2n1)c1cccnc1` [Example Z138, (S)-(3-Hydroxyazetidin-1-yl)(2-((1-(pyridin-3-yl)ethyl)amino)thieno[3,2-d]pyrimidin-4-yl)methanone], the IC50 (in general, the concentration needed to halve the response being measured) was above 500 nM against adenosine A1 receptor [1], 10 to 50 nM at adenosine A2B receptor, 100 to 500 nM on adenosine A2A receptor and above 500 nM against adenosine A3 receptor [4]. For the same compound, the Ratio at adenosine A2B receptor (setting [7]) was found to be 14.05. Further, the intrinsic clearance (hepatocyte CLint) (usually the rate of metabolic loss divided by the concentration) in data set [2] was 1.14 µL/min/1e6 cells; in data set [3], 10.3 µL/min/1e6 cells.
In the case of `COC1CN(C(=O)c2nc(N[C@@H](C)c3cccnc3)nc3ccsc23)C1` [Example Z139, (S)-(3-Methoxyazetidin-1-yl)(2-((1-(pyridin-3-yl)ethyl)amino)thieno[3,2-d]pyrimidin-4-yl)methanone], the IC50 against adenosine A1 receptor [1] is above 500 nM; at adenosine A2B receptor, below 10 nM; at adenosine A2A receptor, 50 to 100 nM; on adenosine A3 receptor [4], above 500 nM. For the same compound, the Ratio at adenosine A2B receptor (setting [7]) came to 8.08. For the same compound, the hepatocyte CLint in data set [2] was found to be 7.67 µL/min/1e6 cells; in data set [3], 24.2 µL/min/1e6 cells.
On to `N#Cc1cncc(CNc2nc(C(=O)N3CCCC3)c3sccc3n2)c1` [Example Z141, 5-(((4-(Pyrrolidine-1-carbonyl)thieno[3,2-d]pyrimidin-2-yl)amino)methyl)nicotinonitrile], for which the IC50 against adenosine A1 receptor [1] was above 500 nM; on adenosine A2B receptor, 10 to 50 nM; at adenosine A2A receptor, above 500 nM; on adenosine A3 receptor [4] it was above 500 nM. The Ratio at adenosine A2B receptor (setting [7]) is listed as 35.53. The hepatocyte CLint in data set [2] was found to be 38.7 µL/min/1e6 cells; in data set [3] it was 102 µL/min/1e6 cells.
With `C[C@H](Nc1nc(C(=O)NC2CCC2)c2sccc2n1)c1ccccn1` [Example Z147, (S)—N-Cyclobutyl-2-((1-(pyridin-2-yl)ethyl)amino)thieno[3,2-d]pyrimidine-4-carboxamide], the IC50 on adenosine A1 receptor [1] was above 500 nM; at adenosine A2B receptor, below 10 nM; on adenosine A2A receptor it was 10 to 50 nM; at adenosine A3 receptor [4], 100 to 500 nM. On adenosine A2B receptor (setting [7]), the Ratio is reported as 2.82. In addition, the hepatocyte CLint in data set [2] was determined as 43.5 µL/min/1e6 cells; in data set [3] it was 68.3 µL/min/1e6 cells.
As for `CNc1cc2nc(N[C@@H](C)c3cccnc3)nc(C(=O)N3CCCC3)c2s1` [Example Z152, (S)-(6-(Methylamino)-2-((1-(pyridin-3-yl)ethyl)amino)thieno[3,2-d]pyrimidin-4-yl)(pyrrolidin-1-yl)methanone], the IC50 is above 500 nM on adenosine A1 receptor [1], below 10 nM on adenosine A2B receptor, 100 to 500 nM on adenosine A2A receptor and 50 to 100 nM against adenosine A3 receptor [4]. On adenosine A2B receptor (setting [7]), the Ratio is recorded as 53.70. Also, the hepatocyte CLint came to 12.3 µL/min/1e6 cells in data set [2] and 38.3 µL/min/1e6 cells in data set [3].
Regarding `C[C@H](Nc1nc(C(=O)N2CCC2)c2sccc2n1)c1cncc(F)c1` [Example Z164, (S)-Azetidin-1-yl(2-((1-(5-fluoropyridin-3-yl)ethyl)amino)thieno[3,2-d]pyrimidin-4-yl)methanone], the IC50 against adenosine A1 receptor [1] is above 500 nM; on adenosine A2B receptor, below 10 nM; on adenosine A2A receptor, 50 to 100 nM; against adenosine A3 receptor [4] it was above 500 nM. Further, the Ratio at adenosine A2B receptor (setting [7]) was 49.96. Moreover, the intrinsic clearance (hepatocyte CLint) in data set [2] was determined as 13.5 µL/min/1e6 cells; in data set [3], 34 µL/min/1e6 cells.
Regarding `C[C@H](Nc1nc(C(=O)N2CC[C@H](O)C2)c2sccc2n1)c1cncc(F)c1` [Example Z165, (2-(((S)-1-(5-Fluoropyridin-3-yl)ethyl)amino)thieno[3,2-d]pyrimidin-4-yl)((S)-3-hydroxypyrrolidin-1-yl)methanone], the concentration for half-maximal inhibition (IC50) against adenosine A1 receptor [1] was above 500 nM; on adenosine A2B receptor, below 10 nM; on adenosine A2A receptor, above 500 nM; at adenosine A3 receptor [4] it was above 500 nM. Also, the Ratio at adenosine A2B receptor (setting [7]) was found to be 73.68. In addition, the hepatocyte CLint was 5.66 µL/min/1e6 cells in data set [2] and 14.8 µL/min/1e6 cells in data set [3].
With `C[C@H](Nc1nc(C(=O)N2CC[C@@H](O)C2)c2sccc2n1)c1cncc(F)c1` [Example Z166, (2-(((S)-1-(5-Fluoropyridin-3-yl)ethyl)amino)thieno[3,2-d]pyrimidin-4-yl)((R)-3-hydroxypyrrolidin-1-yl)methanone], the IC50 is above 500 nM on adenosine A1 receptor [1], 10 to 50 nM at adenosine A2B receptor, above 500 nM at adenosine A2A receptor and above 500 nM against adenosine A3 receptor [4]. In addition, the Ratio on adenosine A2B receptor (setting [7]) is reported as 62.32. Besides, the figures for the hepatocyte CLint in data set [2] and in data set [3] were 4.51 µL/min/1e6 cells and 16.6 µL/min/1e6 cells, respectively.
As to `O=C(NCCO)c1nc(NCc2cc(F)cc(F)c2)nc2ccsc12` [Example Z169, 2-((3,5-Difluorobenzyl)amino)-N-(2-hydroxyethyl)thieno[3,2-d]pyrimidine-4-carboxamide], the IC50 against adenosine A1 receptor [1] was above 500 nM; on adenosine A2B receptor, below 10 nM; on adenosine A2A receptor, 100 to 500 nM; against adenosine A3 receptor [4] it was above 500 nM. Also, the Ratio at adenosine A2B receptor (setting [7]) worked out at 26.40. Besides, the figures for the intrinsic clearance (hepatocyte CLint) in data set [2] and in data set [3] were 55.6 µL/min/1e6 cells and 43.7 µL/min/1e6 cells, respectively.
On to `O=C(NC1CCC1)c1nc(NCc2cncc(F)c2)nc2ccsc12` [Example Z171, N-Cyclobutyl-2-(((5-fluoropyridin-3-yl)methyl)amino)thieno[3,2-d]pyrimidine-4-carboxamide], for which the IC50 against adenosine A1 receptor [1] was 100 to 500 nM; at adenosine A2B receptor, below 10 nM; on adenosine A2A receptor, 50 to 100 nM; against adenosine A3 receptor [4], above 500 nM. Besides, the Ratio on adenosine A2B receptor (setting [7]) was found to be 22.94. The hepatocyte CLint in data set [2] amounted to 51.4 µL/min/1e6 cells; in data set [3], 91.4 µL/min/1e6 cells.
With `O=C(NC1CC(O)C1)c1nc(NCc2cncc(F)c2)nc2ccsc12` (stereo not drawn) [Example Z183, 2-(((5-Fluoropyridin-3-yl)methyl)amino)-N-((1s,3s)-3-hydroxycyclobutyl)thieno[3,2-d]pyrimidine-4-carboxamide], the IC50 against adenosine A1 receptor [1] is above 500 nM; at adenosine A2B receptor, below 10 nM; at adenosine A2A receptor it was 100 to 500 nM; on adenosine A3 receptor [4] it was above 500 nM. Besides, the Ratio on adenosine A2B receptor (setting [7]) is 37.09. Further, the hepatocyte CLint was 24.9 µL/min/1e6 cells in data set [2] and 23.7 µL/min/1e6 cells in data set [3].
As to `COC1CN(C(=O)c2nc(N[C@@H](C)c3cncc(F)c3)nc3ccsc23)C1` [Example Z185, (S)-(2-((1-(5-Fluoropyridin-3-yl)ethyl)amino)thieno[3,2-d]pyrimidin-4-yl)(3-methoxyazetidin-1-yl)methanone], the IC50 is above 500 nM at adenosine A1 receptor [1], below 10 nM at adenosine A2B receptor, 100 to 500 nM at adenosine A2A receptor and above 500 nM at adenosine A3 receptor [4]. In addition, at adenosine A2B receptor (setting [7]), the Ratio came out at 46.14. For the same compound, the hepatocyte CLint in data set [2] is 12 µL/min/1e6 cells; in data set [3] it was 37 µL/min/1e6 cells.
With `CNc1cc2nc(N[C@@H](C)c3cccnc3)nc(C(=O)N3CC[C@H](O)C3)c2s1` [Example Z188, ((S)-3-Hydroxypyrrolidin-1-yl)(6-(methylamino)-2-(((S)-1-(pyridin-3-yl)ethyl)amino)thieno[3,2-d]pyrimidin-4-yl)methanone], the IC50 on adenosine A1 receptor [1] is above 500 nM; on adenosine A2B receptor, 10 to 50 nM; at adenosine A2A receptor, above 500 nM; on adenosine A3 receptor [4], above 500 nM. Further, the Ratio on adenosine A2B receptor (setting [7]) turned out to be 114.79. Also, the hepatocyte CLint amounted to 2.16 µL/min/1e6 cells in data set [2] and 10 µL/min/1e6 cells in data set [3].
`C[C@H](Nc1nc(C(=O)NC[C@@H](C)O)c2sccc2n1)c1cncc(F)c1` [Example Z190, 2-(((S)-1-(5-Fluoropyridin-3-yl)ethyl)amino)-N—((R)-2-hydroxypropyl)thieno[3,2-d]pyrimidine-4-carboxamide]: the IC50 was above 500 nM against adenosine A1 receptor [1], below 10 nM at adenosine A2B receptor, 50 to 100 nM at adenosine A2A receptor and above 500 nM against adenosine A3 receptor [4]. At adenosine A2B receptor (setting [7]), the Ratio was 34.96. Also, the figures for the hepatocyte CLint in data set [2] and in data set [3] were 10.1 µL/min/1e6 cells and 23.7 µL/min/1e6 cells, respectively.
Regarding `C[C@H](O)CNC(=O)c1nc(N[C@@H](C)c2cncc(F)c2)nc2ccsc12` [Example Z191, 2-(((S)-1-(5-Fluoropyridin-3-yl)ethyl)amino)-N—((S)-2-hydroxypropyl)thieno[3,2-d]pyrimidine-4-carboxamide], the IC50 against adenosine A1 receptor [1] is above 500 nM; at adenosine A2B receptor it was below 10 nM; on adenosine A2A receptor, 100 to 500 nM; against adenosine A3 receptor [4], above 500 nM. On adenosine A2B receptor (setting [7]), the Ratio is given as 45.25. Also, the intrinsic metabolic clearance (hepatocyte CLint) in data set [2] was found to be 10.6 µL/min/1e6 cells; in data set [3] it was 26.7 µL/min/1e6 cells.
For `CNc1cc2nc(N[C@@H](C)c3cncc(F)c3)nc(C(=O)N3CC[C@H](O)C3)c2s1` [Example Z197, (2-(((S)-1-(5-Fluoropyridin-3-yl)ethyl)amino)-6-(methylamino)thieno[3,2-d]pyrimidin-4-yl)((S)-3-hydroxypyrrolidin-1-yl)methanone], the IC50 at adenosine A1 receptor [1] was above 500 nM; at adenosine A2B receptor, below 10 nM; on adenosine A2A receptor, above 500 nM; at adenosine A3 receptor [4], above 500 nM. In addition, the Ratio at adenosine A2B receptor (setting [7]) is 298.42. In addition, the hepatocyte CLint in data set [2] was found to be 3.34 µL/min/1e6 cells; in data set [3] it was 16.2 µL/min/1e6 cells.
Turning to `Cc1cc2nc(N[C@@H](C)c3cncc(F)c3)nc(C(=O)N3CC(NC(=O)[C@H]4CCOC4)C3)c2s1` [Example Z599, (S)—N-(1-(2-(((S)-1-(5-Fluoropyridin-3-yl)ethyl)amino)-6-methylthieno[3,2-d]pyrimidine-4-carbonyl)azetidin-3-yl)tetrahydrofuran-3-carboxamide], the Ratio on adenosine A2B receptor (A2A activity to the A2B activity, A2A/A2B) is given as 1.22. The concentration for half-maximal inhibition (IC50) is 10 to 50 nM at adenosine A2B receptor (cAMP), above 500 nM on adenosine A1 receptor [5], 10 to 50 nM on adenosine A2A receptor (cAMP) and 100 to 500 nM at adenosine A3 receptor [6].
